Data on five molecules can be found in ChEMBL document CHEMBL1143819, “In vitro activities of miltefosine and two novel antifungal biscationic salts against a panel of 77 dermatophytes” (2007).

Molecules are shown by their SMILES. In brackets after ≈: the same amount, converted by molar mass.

What all share (assay type): functional
Holding throughout (conditions): 168 h

In one assay the test system is Microsporum canis. Kind of assay: Antifungal activity against Microsporum canis after 7 days by broth microdilution test. A general note: In broth dilution the organism is exposed to a series of concentrations in liquid medium.
The test system of another assay is Microsporum. Kind of assay: Antifungal activity against Microsporum sp. after 7 days by broth microdilution test.
The test system of the next assay is Trichophyton. Kind of assay: Antifungal activity against Trichophyton sp. after 7 days by broth microdilution test.
Another assay has as its system Nannizzia gypsea. In words: Antifungal activity against Microsporum gypseum after 7 days by broth microdilution test.
Another assay has as its system Paraphyton cookei. In words: Antifungal activity against Microsporum cookei after 7 days by broth microdilution test.
A short description of assay [1]: Antifungal activity against Cryptococcus after 7 days by broth microdilution test.
The subject of the next assay is Trichophyton soudanense. Kind of assay: Antifungal activity against Trichophyton soudanense after 7 days by broth microdilution test.
Assay [2] relates to Trichophyton mentagrophytes. In words: Antifungal activity against Trichophyton mentagrophytes after 7 days by broth microdilution test.
For the next assay, the system named is Trichophyton violaceum. In words: Antifungal activity against Trichophyton violaceum after 7 days by broth microdilution test.
The next assay deals with Epidermophyton floccosum. Kind of assay: Antifungal activity against Epidermophyton floccosum after 7 days by broth microdilution test.
A further assay relates to Trichophyton tonsurans. In words: Antifungal activity against Trichophyton tonsurans after 7 days by broth microdilution test.
In another assay the test system is Candida. In words: Antifungal activity against Candida after 7 days by broth microdilution test.
In a further assay the test system is Trichophyton rubrum. Kind of assay: Antifungal activity against Trichophyton rubrum after 7 days by broth microdilution test.

A word on the MIC: it is the lowest concentration that inhibits growth of the organism. Higher therefore signals weaker potency. As a reminder, the MIC50 is an inhibitory concentration at the 50% level, which refers to growth in some studies and to a panel of isolates in others. Read a low MIC50 as greater potency. In general, MIC90 refers to an inhibitory concentration at the 90% level, which refers to growth in some studies and to a panel of isolates in others. Higher therefore signals lower susceptibility.

Consider `CCCCCc1cc[n+](CCCCCCCCCCCC[n+]2ccc(CCCCC)cc2)cc1.[Cl-].[Cl-]`, for which the minimal inhibitory concentration (MIC) in the assay on Microsporum canis was 2.95 µg/mL; against Microsporum, 2.24 µg/mL; against Trichophyton, 6.98 µg/mL; against Nannizzia gypsea, 2.41 µg/mL; against Paraphyton cookei it was 1.06 µg/mL; in assay [1], 0.6 µg/mL. Also, the minimal inhibitory concentration (MIC) against Trichophyton soudanense worked out at 14.5 µg/mL; in assay [2], 9.01 µg/mL; against Trichophyton violaceum it was 8.96 µg/mL; against Epidermophyton floccosum, 7.63 µg/mL; in the assay on Trichophyton tonsurans, 2.8 µg/mL; in the assay with Candida, 0.6 µg/mL. In the assay with Trichophyton rubrum, this molecule gave an MIC of 10.4 µg/mL. Further, the MIC50 in the assay on Microsporum came out at 2 µg/mL; in the assay with Trichophyton, 8 µg/mL; in [2], 8 µg/mL; with Trichophyton tonsurans, 2 µg/mL; against Trichophyton rubrum, 8 µg/mL. In addition, the MIC90 with Microsporum came out at 4 µg/mL; with Trichophyton, 16 µg/mL; in assay [2], 16 µg/mL; against Trichophyton tonsurans, 8 µg/mL; with Trichophyton rubrum it was 16 µg/mL.

In the case of `CCCCCCCCCCCCCCCCOP(=O)([O-])OCC[N+](C)(C)C` [MILTEFOSINE], the MIC was 0.555 µg/mL (≈ 1.36 µM) with Microsporum canis; 0.75 µg/mL (≈ 1.84 µM) in the assay on Microsporum; 0.652 µg/mL (≈ 1.6 µM) in the assay with Trichophyton; 0.842 µg/mL (≈ 2.07 µM) in the assay on Nannizzia gypsea; 0.866 µg/mL (≈ 2.12 µM) against Paraphyton cookei; 0.52 µg/mL (≈ 1.28 µM) in the assay on Trichophyton soudanense. The minimal inhibitory concentration (MIC) in [2] amounted to 1.13 µg/mL (≈ 2.78 µM); in the assay with Trichophyton violaceum it was 0.328 µg/mL (≈ 0.805 µM); in the assay on Epidermophyton floccosum it was 0.548 µg/mL (≈ 1.34 µM); in the assay on Trichophyton tonsurans it was 0.398 µg/mL (≈ 0.977 µM); against Trichophyton rubrum, 0.547 µg/mL (≈ 1.34 µM). The MIC50 in the assay with Microsporum worked out at 1 µg/mL (≈ 2.45 µM); in the assay with Trichophyton it was 0.5 µg/mL (≈ 1.23 µM); in assay [2], 1 µg/mL (≈ 2.45 µM); in the assay with Trichophyton tonsurans, 0.25 µg/mL (≈ 0.613 µM); with Trichophyton rubrum it was 0.5 µg/mL (≈ 1.23 µM). In addition, the MIC90 amounted to 1 µg/mL (≈ 2.45 µM) against Microsporum; 1 µg/mL (≈ 2.45 µM) in the assay with Trichophyton; 2 µg/mL (≈ 4.91 µM) in [2]; 1 µg/mL (≈ 2.45 µM) against Trichophyton tonsurans; 1 µg/mL (≈ 2.45 µM) against Trichophyton rubrum.

As to `CCC(C)n1ncn(-c2ccc(N3CCN(c4ccc(OCC5COC(Cn6cncn6)(c6ccc(Cl)cc6Cl)O5)cc4)CC3)cc2)c1=O` (stereo not given) [ITRACONAZOLE], the minimal inhibitory concentration (MIC) in the assay on Microsporum canis was determined as 1.23 µg/mL (≈ 1.74 µM); in the assay with Microsporum, 2.63 µg/mL (≈ 3.73 µM); in the assay with Trichophyton, 1.99 µg/mL (≈ 2.82 µM); in the assay with Nannizzia gypsea it was 3.68 µg/mL (≈ 5.22 µM); against Paraphyton cookei, 6 µg/mL (≈ 8.5 µM); in the assay with Trichophyton soudanense, 3.42 µg/mL (≈ 4.85 µM). Also, the MIC in [2] stood at 1.68 µg/mL (≈ 2.38 µM); against Trichophyton violaceum, 3.3 µg/mL (≈ 4.68 µM); against Epidermophyton floccosum, 0.226 µg/mL (≈ 0.32 µM); against Trichophyton tonsurans, 1.65 µg/mL (≈ 2.33 µM); in the assay on Trichophyton rubrum it was 1.96 µg/mL (≈ 2.77 µM). For the same molecule, the MIC50 in the assay on Microsporum came out at 4 µg/mL (≈ 5.67 µM); with Trichophyton, 2 µg/mL (≈ 2.83 µM); in assay [2], 2 µg/mL (≈ 2.83 µM); against Trichophyton tonsurans it was 2 µg/mL (≈ 2.83 µM); in the assay on Trichophyton rubrum it was 2 µg/mL (≈ 2.83 µM). Also, the MIC90 worked out at 8 µg/mL (≈ 11.3 µM) against Microsporum; 4 µg/mL (≈ 5.67 µM) with Trichophyton; 4 µg/mL (≈ 5.67 µM) in [2]; 4 µg/mL (≈ 5.67 µM) in the assay with Trichophyton tonsurans; 4 µg/mL (≈ 5.67 µM) against Trichophyton rubrum.

Take `CN(Cc1ccc(C(C)(C)C)cc1)Cc1cccc2ccccc12` [BUTENAFINE]: the MIC in the assay on Microsporum canis is 0.101 µg/mL (≈ 0.318 µM); with Microsporum it was 0.106 µg/mL (≈ 0.334 µM); in the assay with Trichophyton it was 0.074 µg/mL (≈ 0.233 µM); with Nannizzia gypsea, 0.084 µg/mL (≈ 0.265 µM); against Paraphyton cookei, 0.153 µg/mL (≈ 0.482 µM); with Trichophyton soudanense it was 0.059 µg/mL (≈ 0.186 µM). The minimum inhibitory concentration (MIC) in [2] turned out to be 0.063 µg/mL (≈ 0.198 µM); against Trichophyton violaceum, 0.063 µg/mL (≈ 0.198 µM); in the assay on Epidermophyton floccosum, 0.081 µg/mL (≈ 0.255 µM); with Trichophyton tonsurans, 0.04 µg/mL (≈ 0.126 µM); in the assay on Trichophyton rubrum, 0.05 µg/mL (≈ 0.157 µM). Moreover, the MIC50 in the assay with Microsporum stood at 0.125 µg/mL (≈ 0.394 µM); in the assay on Trichophyton, 0.063 µg/mL (≈ 0.198 µM); in assay [2] it was 0.063 µg/mL (≈ 0.198 µM); against Trichophyton tonsurans it was 0.031 µg/mL (≈ 0.0976 µM); in the assay on Trichophyton rubrum it was 0.063 µg/mL (≈ 0.198 µM). Besides, the MIC90 against Microsporum is 0.125 µg/mL (≈ 0.394 µM); against Trichophyton, 0.125 µg/mL (≈ 0.394 µM); in assay [2] it was 0.125 µg/mL (≈ 0.394 µM); against Trichophyton tonsurans, 0.063 µg/mL (≈ 0.198 µM); in the assay on Trichophyton rubrum, 0.125 µg/mL (≈ 0.394 µM).

Consider `CN(C/C=C/C#CC(C)(C)C)Cc1cccc2ccccc12` [TERBINAFINE], for which the MIC against Microsporum canis stood at 0.083 µg/mL (≈ 0.285 µM); against Microsporum it was 0.075 µg/mL (≈ 0.257 µM); against Trichophyton it was 0.044 µg/mL (≈ 0.151 µM); against Nannizzia gypsea, 0.065 µg/mL (≈ 0.223 µM); in the assay on Paraphyton cookei, 0.077 µg/mL (≈ 0.264 µM); against Trichophyton soudanense it was 0.039 µg/mL (≈ 0.134 µM). Besides, the minimum inhibitory concentration (MIC) turned out to be 0.03 µg/mL (≈ 0.103 µM) in assay [2]; 0.063 µg/mL (≈ 0.216 µM) in the assay on Trichophyton violaceum; 0.059 µg/mL (≈ 0.202 µM) against Epidermophyton floccosum; 0.03 µg/mL (≈ 0.103 µM) against Trichophyton tonsurans; 0.035 µg/mL (≈ 0.12 µM) with Trichophyton rubrum. Moreover, the MIC50 was 0.063 µg/mL (≈ 0.216 µM) with Microsporum, 0.031 µg/mL (≈ 0.106 µM) against Trichophyton, 0.031 µg/mL (≈ 0.106 µM) in assay [2] and 0.031 µg/mL (≈ 0.106 µM) in the assay with Trichophyton rubrum. For the same molecule, the MIC90 with Microsporum worked out at 0.125 µg/mL (≈ 0.429 µM); in the assay with Trichophyton it was 0.063 µg/mL (≈ 0.216 µM); in assay [2] it was 0.063 µg/mL (≈ 0.216 µM); with Trichophyton rubrum it was 0.063 µg/mL (≈ 0.216 µM).
